Data taken from patent US8435987B2, “Pyrazolo-pyridinone and pyrazolo-pyrazinone compounds as P38 modulators and methods of use thereof” (Amgen Inc., priority 2007, dated 2013).
Read-outs that look alike come from different tables or passages of the source.

Key:
[1] = system: secreted IL-8 by whole blood activated with TNF-α; assay: Inhibition of TNF-α induced IL-8 in 50% human whole blood; type: cell-based
Experimental: Inhibition of TNF-α Induced IL-8 in 50% Human Whole Blood
Test compounds were evaluated in vitro for the ability to inhibit the production of secreted IL-8 by whole blood activated with TNF-α. Fresh human whole blood was obtained from healthy, non-medicated volunteers in sodium heparin tubes.
Compound Dilution—Assay Procedure
Test compounds are serially diluted 1:3 in DMSO and then diluted 1:250 into R10 (RPMI 1640, 10% human serum AB, 1× pen/strep/glutamine) to the 4× working concentration to be used in the assay. 100 ul heparinized whole blood is plated into wells of 96 well flat bottom plates. 50 ul of either 4× compound or DMSO control (Final DMSO concentration is 0.1%) are added to the appropriate wells. Plates are incubated for 1 hour at 37 degrees Celsius. 50 ul of 4× TNF-α (4 nM TNF-α, for a final concentration of 1 nM) or control (media alone) is added to the appropriate wells (Total volume=200 ul). Plates are incubated overnight (16-18 hours). 100 ul of supernatant is collected and stored in 96-well round bottom polypropylene plates at −80 degrees Celsius or assayed immediately for IL-8.
Cytokines are measured on antibody (Ab) sandwich ECL based 96-well detection plates. 20 ul of supernatant are added to plate and plate is sealed and shaken at RT for 1 hour. 130 ul of detection Ab cocktail is added and plates are sealed and shaken for 1 hour in the dark at RT. Plates are read on MSD Sector HTS instrument. Data are analyzed and IC50 values generated using Activity Base and Xl-fit programs.

recombinant human p38α = recombinant human p38α (Homo sapiens, UniProt Q16539); assay: Purified and activated recombinant human p38α HTRF assay; type: biochemical; conditions: 1 nM p38α, 50 μM ATP, 100 nM GST-ATF2-Avitag, read-out: p3a IC550
Chain of recombinant human p38α (Q16539 whole entry): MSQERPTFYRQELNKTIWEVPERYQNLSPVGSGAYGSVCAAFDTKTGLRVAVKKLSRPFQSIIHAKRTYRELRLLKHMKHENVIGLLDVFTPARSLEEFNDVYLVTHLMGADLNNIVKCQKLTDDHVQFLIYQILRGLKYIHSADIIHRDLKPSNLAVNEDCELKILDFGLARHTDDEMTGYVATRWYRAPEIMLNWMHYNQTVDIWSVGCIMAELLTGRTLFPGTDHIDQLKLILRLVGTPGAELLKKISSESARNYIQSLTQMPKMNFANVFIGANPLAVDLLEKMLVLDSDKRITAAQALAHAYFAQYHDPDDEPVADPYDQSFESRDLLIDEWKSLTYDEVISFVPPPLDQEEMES
Experimental: Purified and Activated Recombinant Human p38α Assay
• Kinase Reaction Buffer: Kinase reaction buffer for p38α HTRF assays consists of 50 mM Tris-pH 7.5, 5 mM MgCl2, 0.1 mg/mL BSA, 100 μM Na3VO4 and 0.5 mM DTT. • HTRF Detection Buffer: HTRF detection buffer contains 100 mM HEPES-pH 7.5, 100 mM NaCl, 0.1% BSA, 0.05% Tween-20, and 10 mM EDTA. • Serial Dilution of Compounds: Compounds were dissolved in 100% DMSO and serially diluted (3 fold, 10 point) in a polypropylene 96-well microtiter plate (drug plate). The final starting concentration of compounds in the p38a enzymatic assays was 1 μM. Columns 6 and 12 (HI controls and LO controls respectively) in the drug plate were reserved as controls and contained only DMSO. • Kinase Reaction: The p38α kinase reactions were carried out in a polypropylene 96-well black round bottom assay plate in total volume of 30 μL kinase reaction buffer. Appropriate concentration of purified and activated enzyme (recombinant human) was mixed with indicated concentration of ATP and 100 nM GST-ATF2-Avitag, in the presence or absence (HI control) of Compound. See table below for actual concentrations. In the absence of substrate, the background was measured as LO control. The reaction was allowed to incubate for 1 hour at RT. • Assay Reagent Concentrations: The final reagent concentrations were 1 nM p38α and 50 μM ATP. […] After 60 minutes incubation at room temperature, the assay plate was read in a Discovery Plate Reader. The wells were excited with coherent 320 nm light and the ratio of delayed ([…] post excitation) emissions at […] (native europium fluorescence) and 665 nm (europium fluorescence transferred to allophycocyanin—an index of substrate phosphorylation) was determined (Park et al, 1999). • Data Analysis: The proportion of substrate phosphorylated in the kinase reaction in the presence of compound compared with that phosphorylated in the presence of DMSO vehicle alone (HI control) was calculated using the formula: % control (POC)=(compound−average LO)/(average HI−average LO)*100. Data (consisting of POC and inhibitor concentration in μM) was fitted to a 4-parameter equation (y=A+((B−A)/(1+((x/C)AD))), where A is the minimum y (POC) value, B is the maximum y (POC), C is the x (compound concentration) at the point of inflection and D is the slope factor, using a Levenburg-Marquardt non-linear regression algorithm.
The inhibition constant (Ki) of the inhibitor was estimated from the IC50 (compound concentration at the point of inflection C) using the Cheng-Prussof equation: Ki=IC50/(1+S/Km), where S is the ATP substrate concentration, and Km is the Michaelis constant for ATP as determined experimentally. All results were expressed as the mean± the standard error of the mean. Data acquisition and non-linear regression algorithms were performed using Activity Base v5.2 and XL-fit software v4.1 respectively. All data was archived using Activity Base v5.2 software.

[2] = system: TNF-α secretion by LPS-treated THP1 cells; assay: Lipopolysaccharide-activated THP1 cell TNF production assay; type: cell-based; conditions: Homo sapiens, THP-1, 3 hours, read-out: IC50 in the THP-1 cellular TNF production assay
Experimental: Lipopolysaccharide-Activated THP1 Cell TNF Production Assay
THP1 cells were resuspended in fresh THP1 media (RPMI 1640, 10% heat-inactivated FBS, 1×PGS, 1×NEAA, plus 30 μM βME) at a concentration of 1.5×10^6 cells per mL. One hundred microliters of cells per well were plated in a polystyrene 96-well tissue culture plate. 1.5 micrograms per mL of bacterial LPS was prepared in THP1 media and transferred to the first 11 columns of a 96-well polypropylene plate. Column 12 contained only THP1 media for the LO control. Compounds were dissolved in 100% DMSO and serially diluted 3 fold in a polypropylene 96-well microtiter plate (drug plate). Columns 6 and 12 were reserved as controls (HI controls and LO controls respectively) and contained only DMSO. 10 μL of LPS followed by one microliter of inhibitor compound from the drug plate was transferred to the cell plate. The treated cells were induced to synthesize and secrete TNF-α in a 37° C. humidified incubator with 5% CO2 for 3 hours. Fifty microliters of conditioned media was transferred to a 96-well MULTI-ARRAY™ 96-well small spot plate—custom coated with MAB610 containing 100 μL of 2× Read Buffer P supplemented with 0.34 nM AF210NA polyclonal Ab labeled with ruthenium (MSD-Sulfo-TAG™—NHS ester). After an overnight incubation at room temperature with shaking, the reaction was read on the Sector Imager™ 6000. […] The amount of secreted TNF-α in the presence of AMG compounds compared with that in the presence of DMSO vehicle alone (HI control) was calculated using the formula: % control (POC)=(cpd−average LO)/(average HI−averageLO)*100. Data (consisting of POC and inhibitor concentration in μM) was fitted to a 4-parameter equation (y=A+((B−A)/(1+((x/C)^D))), where A is the minimum y (POC) value, B is the maximum y (POC), C is the x (cpd concentration) at the point of inflection and D is the slope factor) using a Levenburg-Marquardt non-linear regression algorithm.

[3] = 50% human whole blood, TNF-α (1 nM final) induced IL-8, 16-18 hours, read-out: WB TNF/IL8 IC50
[4] = Homo sapiens, read-out: IC50, TNF-α induced IL-8 in 50% human whole blood

IC50 [1, 3] [nM]	IC50 [1, 4] [nM]	IC50 (recombinant human p38α) [nM]	IC50 [2] [nM]	SMILES
8	–	–	–	Cc1ccc2c(NC3CC3)noc2c1-c1nc2cnn(-c3c(F)cccc3F)c2n(C)c1=O [Example 9, 5-(3-(cyclopropylamino)-6-methyl-1,2-benzisoxazol-7-yl)-1-(2,6-difluorophenyl)-7-methyl-1,7-dihydro-6H-pyrazolo[3,4-b]pyrazin-6-one]
8.9	–	–	–	Cc1ccc2c(NC3CC3)noc2c1-c1nc2cnn(-c3ccc(F)cc3F)c2n(C)c1=O [Example 10, 5-(3-(cyclopropylamino)-6-methyl-1,2-benzisoxazol-7-yl)-1-(2,4-difluorophenyl)-7-methyl-1,7-dihydro-6H-pyrazolo[3,4-b]pyrazin-6-one]

The remaining lines, values behind:

SMILES	IC50 [1, 3] [nM]	IC50 [1, 4] [nM]	IC50 (recombinant human p38α) [nM]	IC50 [2] [nM]
CNc1noc2c(-c3nc4cnn(-c5ccc(F)cc5F)c4n(C)c3=O)c(C)ccc12 [Example 2, 1-(2,4-difluorophenyl)-7-methyl-5-(6-methyl-3-(methylamino)benzo[d]isoxazol-7-yl)-1H-pyrazolo[4,3-b]pyrazin-6(7H)-one]	–	≤ 100	28.5	≤ 100
Cc1ccc2c(NC3CC3)noc2c1-c1cc2cnn(-c3cc(F)ccc3F)c2n(C)c1=O [Example 6, 5-(3-(cyclopropylamino)-6-methyl-1,2-benzisoxazol-7-yl)-1-(2,5-difluorophenyl)-7-methyl-1,7-dihydro-6H-pyrazolo[3,4-b]pyridin-6-one]	1.6	≤ 100	8.9	≤ 100
CCn1c(=O)c(-c2c(C)ccc3c(NC4CC4)noc23)cc2cnn(-c3ccccc3F)c21 [Example 7, 5-(3-(cyclopropylamino)-6-methyl-1,2-benzisoxazol-7-yl)-7-ethyl-1-(2-fluorophenyl)-1,7-dihydro-6H-pyrazolo[3,4-b]pyridin-6-one]	1.3	≤ 100	2	≤ 100
Cc1ccc2c(NC3CC3)noc2c1-c1cc2cnn(-c3ccc(F)cc3F)c2n(C)c1=O [Example 8, 5-(3-(cyclopropylamino)-6-methyl-1,2-benzisoxazol-7-yl)-1-(2,4-difluorophenyl)-7-methyl-1,7-dihydro-6H-pyrazolo[3,4-b]pyridin-6-one]	1.8	≤ 100	4.4	≤ 100
